What was measured:
[1] = PubChem Compound Summary; cited from earlier work
[2] = tested on: phospho-ERK in SK-MEL-30 cells; test: pERK/tERK ratio in SK-MEL-30 melanoma model; type: cell-based; details: SK-MEL-30 (NRAS p.Q61K); 100 nM
Description: (§1) Compound (drug) treatment: Cells were plated in a 6-well plate at a density of 250,000-300,000 cells/well in 3 mL media and incubated 37° C. in a humidified, 5% CO2 incubator. […] These solutions were added to the cells (3 uL/well), mixed by swirling the plate, and incubated at 37° C. in a humidified, 5% CO2 incubator for 2 hours.
(§2) Cell lysis and protein estimation: Cells were washed with PBS, and scraped in 50 μL of lysis buffer containing protease and phosphatase inhibitors. Cell lysates were stored at −20° C. Cell lysates were thawed and spun at 12,000 rpm for one minute, 3 ul of the supernatant was added to 500 μL of Coomassie blue reagent following by 500 μL of water. […] Protein standards were used (0-20 mg/mL) to calculate protein concentrations of test samples.
(§3) All samples were heated at 95° C. for 5 minutes, cooled to room temperature and spun down. […] After the run, gel was removed and protein transfer was done using iBlot for 7 minutes, as per manufacturer's recommendations. After the transfer, nitrocellulose membrane was incubated on a shaker in 5 mL of blocking buffer at room temperature for 1 hr. The blot was then incubated overnight on a shaker in 5 ml of blocking buffer containing 0.2% Tween-20 and primary antibody, at room temperature. Anti-phospho-STAT3 antibody was used at a dilution of 1:500, the other 3 primary antibodies were used at a dilution of 1:1000.
(§4) Next day, the blot was washed 3 times for 10 min each with 10 mL of TBST followed by incubation on a shaker in 5 ml of blocking buffer containing 0.2% Tween-20 and 0.5 ul of the IRDye labeled secondary antibodies, diluted 1:10000, at room temperature for 1 hr. The blot was then washed 3 times for 10 min each with 10 mL of TBST and dried between sheets of paper towels. Imaging was done using LICOR's Odyssey imaging system, quantitation was done using their software, Image Studio version 3.1.
(§5) The nine models are described in Table 16.

[3] = tested on: phospho-ERK in SK-MEL-2 cells; test: pERK/tERK ratio in SK-MEL-2 melanoma model; type: cell-based; details: SK-MEL-2 (NRAS p.Q61R); 100 nM
Description: as §1, §2, §3, §4, §5

[4] = tested on: phospho-ERK in Hs852.T cells; test: pERK/tERK ratio in Hs852.T melanoma model; type: cell-based; details: Hs852.T (NRAS p.G12V); 100 nM
Description: as §1, §2, §3, §4, §5

[5] = tested on: phospho-MEK in Hs852.T cells; test: pMEK/tMEK ratio in Hs852.T melanoma model; type: cell-based; details: Hs852.T (NRAS p.G12V); 100 nM
Description: as §1, §2, §3, §4, §5

[6] = tested on: phospho-MEK in MeWo cells; test: pMEK/tMEK ratio in MeWo melanoma model; type: cell-based; details: MeWo (NF1 LoF); 100 nM
Description: as §1, §2, §3, §4, §5

[7] = tested on: phospho-ERK in MeWo cells; test: pERK/tERK ratio in MeWo melanoma model; type: cell-based; details: MeWo (NF1 LoF); 100 nM
Description: as §1, §2, §3, §4, §5

[8] = tested on: phospho-MEK in SK-MEL-28 cells; test: pMEK/tMEK ratio in SK-MEL-28 melanoma model; type: cell-based; details: SK-MEL-28 (BRAF p.V600E); 100 nM
Description: as §1, §2, §3, §4, §5

[9] = tested on: phospho-ERK in SK-MEL-28 cells; test: pERK/tERK ratio in SK-MEL-28 melanoma model; type: cell-based; details: SK-MEL-28 (BRAF p.V600E); 100 nM
Description: as §1, §2, §3, §4, §5

[10] = tested on: phospho-ERK in MEL-JUSO cells; test: pERK/tERK ratio in MEL-JUSO melanoma model; type: cell-based; details: MEL-JUSO (HRAS p.G13D, NRAS p.Q61L); 100 nM
Description: as §1, §2, §3, §4, §5

[11] = tested on: phospho-ERK in MM415 cells; test: pERK/tERK ratio in MM415 melanoma model; type: cell-based; details: MM415 (NRAS p.Q61L); 100 nM
Description: as §1, §2, §3, §4, §5

[12] = tested on: phospho-ERK in MM127 cells; test: pERK/tERK ratio in MM127 melanoma model; type: cell-based; details: MM127 (NRAS p.G13R, BRAF p.G464E); 100 nM
Description: as §1, §2, §3, §4, §5

[13] = tested on: phospho-MEK in MEL-JUSO cells; test: pMEK/tMEK ratio in MEL-JUSO melanoma model; type: cell-based; details: MEL-JUSO (HRAS p.G13D, NRAS p.Q61L); 100 nM
Description: as §1, §2, §3, §4, §5

[14] = tested on: phospho-MEK in SK-MEL-30 cells; test: pMEK/tMEK ratio in SK-MEL-30 melanoma model; type: cell-based; details: SK-MEL-30 (NRAS p.Q61K); 100 nM
Description: as §1, §2, §3, §4, §5

[15] = tested on: phospho-MEK in MM415 cells; test: pMEK/tMEK ratio in MM415 melanoma model; type: cell-based; details: MM415 (NRAS p.Q61L); 100 nM
Description: as §1, §2, §3, §4, §5

[16] = tested on: phospho-MEK in SK-MEL-2 cells; test: pMEK/tMEK ratio in SK-MEL-2 melanoma model; type: cell-based; details: SK-MEL-2 (NRAS p.Q61R); 100 nM
Description: as §1, §2, §3, §4, §5

[17] = tested on: phospho-MEK in A375 cells; test: pMEK/tMEK ratio in A375 melanoma model; type: cell-based; details: A375 (BRAF p.V600E); 100 nM
Description: as §1, §2, §3, §4, §5

[18] = tested on: phospho-MEK in MM127 cells; test: pMEK/tMEK ratio in MM127 melanoma model; type: cell-based; details: MM127 (NRAS p.G13R, BRAF p.G464E); 100 nM
Description: as §1, §2, §3, §4, §5

[19] = tested on: phospho-ERK in A375 cells; test: Cell-based pERK (pERK:tERK) in A375 cells; details: A375 (BRAF p.V600E); 100 nM
Description: Materials and Methods: A549 or A375 cells were seeded in 6-well plates at an appropriate seeding density on day 0. On day 2 or 3, after checking the health and confluency of cells, the media was aspirated and replaced with 1 mL media containing a predetermined concentration of compound and incubated for 2 hours. After 2 hours, the media was aspirated, and the cells washed 2 times with cold PBS. Cells were lysed on ice, with 50 uL 1×CST lysis buffer +1 mM PMSF for 5 minutes. After 5 minutes, cells were removed using a scraper and transferred to cold 1.5 mL tubes, and centrifuged for 10 min, 4° C., 14,000×g. Supernatant was gently removed and snap frozen in liquid nitrogen. Protein concentration of the lysate was determined using Bradford Reagent (analyzed using SpectraMax M2E) and diluted to 1 mg/mL or pERK or 1.5 mg/mL for pMEK analysis. […] All dilutions were in Milk-free antibody diluent.
A549 or […] cells were treated in duplicate for two hours with compounds at varying concentrations. After two hours, the cells were lysed, snap frozen, and stored at −80° C. After storage, the lysate was quantified with the Bradford assay. Before the lysates were prepared to run on the Jess, the lysates were diluted to 1 mg/mL for pERK analysis and 1.5 mg/mL pMEK analysis using quantitative Western blotting. ERK and MEK phosphorylation levels were estimated by taking the ratio of phospho-protein to total protein and normalizing to the DMSO control.
as §5

Cn1cnc2c(F)c(Nc3ccc(Br)cc3F)c(C(=O)NOCCO)cc21 [Binimetinib]
human plasma drug half-life [1]: 3.5 h
pERK/tERK ratio normalized to DMSO [2]: 0.082
pERK/tERK ratio normalized to DMSO [3]: 0.125
pERK/tERK ratio normalized to DMSO [4]: 0.203
pMEK/tMEK ratio normalized to DMSO [5]: 6.489
pMEK/tMEK ratio normalized to DMSO [6]: 7.42
pERK/tERK ratio normalized to DMSO [7]: 0.161
pMEK/tMEK ratio normalized to DMSO [8]: 1.055
pERK/tERK ratio normalized to DMSO [9]: 0.079
pERK/tERK ratio normalized to DMSO [10]: 0.139
pERK/tERK ratio normalized to DMSO [11]: 0.056
pERK/tERK ratio normalized to DMSO [12]: 0.199
pMEK/tMEK ratio normalized to DMSO [13]: 3.291
pMEK/tMEK ratio normalized to DMSO [14]: 2.649
pMEK/tMEK ratio normalized to DMSO [15]: 3.055
pMEK/tMEK ratio normalized to DMSO [16]: 2.587
pMEK/tMEK ratio normalized to DMSO [17]: 1.062
pMEK/tMEK ratio normalized to DMSO [18]: 3.009
pERK/tERK ratio normalized to DMSO [19]: 0.136

— patent US20250179057A1, “MEK IMMUNE ONCOLOGY INHIBITORS AND THERAPEUTIC USES THEREOF” (Immuneering Corporation, priority 2022, published 2025)
